Laboratory results published in patent publication US9120820B2, “Fluorescent molecular probes for use in assays that measure test compound competitive binding with SAM-utilizing proteins” (CAYMAN CHEMICAL COMPANY, INCORPORATED, priority 2011, dated 2015).
Several values for one entry are separate records, joined by “and”; a condition that tells them apart may be missing. Equal values may be shown once. Read-outs that look alike come from different tables or passages of the source.

Experiments:
SET7/9 = molecular target: T1, SET7/9 (Homo sapiens, UniProt Q8WTS6); assay: Fluorescence polarization saturation binding of fluorescent probe to SET7/9
T1 construct: purchased Cayman 10320
T1 sequence (Q8WTS6 1-366): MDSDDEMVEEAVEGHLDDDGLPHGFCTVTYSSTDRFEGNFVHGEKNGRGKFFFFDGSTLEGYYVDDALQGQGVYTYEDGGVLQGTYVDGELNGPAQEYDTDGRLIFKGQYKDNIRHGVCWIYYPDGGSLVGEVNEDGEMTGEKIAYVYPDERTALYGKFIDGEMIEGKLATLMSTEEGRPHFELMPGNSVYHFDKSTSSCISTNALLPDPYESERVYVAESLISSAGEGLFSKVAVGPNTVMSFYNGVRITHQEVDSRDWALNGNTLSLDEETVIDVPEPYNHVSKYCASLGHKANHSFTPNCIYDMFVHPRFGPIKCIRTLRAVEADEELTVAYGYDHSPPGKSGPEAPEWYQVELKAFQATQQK
Description: (§1) Methods: The experiment was performed once, with two replicate wells for all methyltransferases per condition. The sole exception to this is NSD2 (see details below). The assay was performed in a ½ area, black, 96-well plate (Corning #3686) in a final volume of 30 μL. Methyltransferases (Table 1) were serially diluted two-fold in FP buffer (Cayman Catalog #600028) and 15 μL of a given dilution were added per well to the assay plate. Fifteen microliters of sinefungin probe 1A (10 nM) were added to each well, giving a final sinefungin probe 1A concentration of 5 nM. This concentration of sinefungin probe 1A was chosen because it had at least a 10-fold increase in fluorescence (excitation max 575 nm/emission max 615 nm) over background (buffer). The mixture was incubated in the dark at room temperature for 30 minutes and its fluorescence polarization was read using a BioTek Synergy 4.

PRMT1 = molecular target: T2, PRMT1 (Homo sapiens, UniProt Q99873); assay: Fluorescence polarization saturation binding of fluorescent probe to PRMT1
T2 construct: purchased Cayman
T2 sequence (Q99873 whole entry): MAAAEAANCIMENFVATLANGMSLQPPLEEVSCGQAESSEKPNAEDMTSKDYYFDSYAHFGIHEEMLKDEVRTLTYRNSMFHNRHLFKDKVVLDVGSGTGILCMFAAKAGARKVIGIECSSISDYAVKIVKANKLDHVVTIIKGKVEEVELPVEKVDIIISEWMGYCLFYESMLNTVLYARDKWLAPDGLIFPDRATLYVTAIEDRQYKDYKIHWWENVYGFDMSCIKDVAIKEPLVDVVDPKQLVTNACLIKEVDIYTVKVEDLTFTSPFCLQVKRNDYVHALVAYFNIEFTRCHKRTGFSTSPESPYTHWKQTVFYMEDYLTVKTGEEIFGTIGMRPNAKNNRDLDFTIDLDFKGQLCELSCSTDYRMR
Description: as §1

Trypsin = assay: Fluorescence polarization saturation binding of fluorescent probe to Trypsin (control protein); conditions: saturation-binding format, read-out: Sinefungin Probe 1A Affinity
Description: (§2) Sinefungin Probe 1A was tested for the ability to bind to 16 proteins, including several non-methlytransferase protein controls (Table 2). This probe binds to 4 methyltransferases (SET7/9, G9a, GLP, MLL) with Kd values <2 μM.

MLL = MLL (Homo sapiens, UniProt Q03164); assay: Fluorescence polarization saturation binding of fluorescent probe to MLL; conditions: saturation-binding format, mean ± SEM, read-out: Sinefungin Probe 1A Affinity
Chain of MLL (Q03164 3785-3969 limits assumed): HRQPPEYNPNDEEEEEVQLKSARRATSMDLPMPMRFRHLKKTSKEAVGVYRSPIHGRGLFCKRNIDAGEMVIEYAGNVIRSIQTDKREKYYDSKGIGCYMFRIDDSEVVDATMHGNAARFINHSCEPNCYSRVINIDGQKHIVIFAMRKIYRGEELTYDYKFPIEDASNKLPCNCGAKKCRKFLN
Description: as §2

GLP = molecular target: T3, GLP (Homo sapiens, UniProt Q9H9B1); assay: Fluorescence polarization saturation binding of fluorescent probe to GLP; conditions: saturation-binding format, mean ± SEM, read-out: Sinefungin Probe 1A Affinity
T3 sequence (Q9H9B1 1-1298): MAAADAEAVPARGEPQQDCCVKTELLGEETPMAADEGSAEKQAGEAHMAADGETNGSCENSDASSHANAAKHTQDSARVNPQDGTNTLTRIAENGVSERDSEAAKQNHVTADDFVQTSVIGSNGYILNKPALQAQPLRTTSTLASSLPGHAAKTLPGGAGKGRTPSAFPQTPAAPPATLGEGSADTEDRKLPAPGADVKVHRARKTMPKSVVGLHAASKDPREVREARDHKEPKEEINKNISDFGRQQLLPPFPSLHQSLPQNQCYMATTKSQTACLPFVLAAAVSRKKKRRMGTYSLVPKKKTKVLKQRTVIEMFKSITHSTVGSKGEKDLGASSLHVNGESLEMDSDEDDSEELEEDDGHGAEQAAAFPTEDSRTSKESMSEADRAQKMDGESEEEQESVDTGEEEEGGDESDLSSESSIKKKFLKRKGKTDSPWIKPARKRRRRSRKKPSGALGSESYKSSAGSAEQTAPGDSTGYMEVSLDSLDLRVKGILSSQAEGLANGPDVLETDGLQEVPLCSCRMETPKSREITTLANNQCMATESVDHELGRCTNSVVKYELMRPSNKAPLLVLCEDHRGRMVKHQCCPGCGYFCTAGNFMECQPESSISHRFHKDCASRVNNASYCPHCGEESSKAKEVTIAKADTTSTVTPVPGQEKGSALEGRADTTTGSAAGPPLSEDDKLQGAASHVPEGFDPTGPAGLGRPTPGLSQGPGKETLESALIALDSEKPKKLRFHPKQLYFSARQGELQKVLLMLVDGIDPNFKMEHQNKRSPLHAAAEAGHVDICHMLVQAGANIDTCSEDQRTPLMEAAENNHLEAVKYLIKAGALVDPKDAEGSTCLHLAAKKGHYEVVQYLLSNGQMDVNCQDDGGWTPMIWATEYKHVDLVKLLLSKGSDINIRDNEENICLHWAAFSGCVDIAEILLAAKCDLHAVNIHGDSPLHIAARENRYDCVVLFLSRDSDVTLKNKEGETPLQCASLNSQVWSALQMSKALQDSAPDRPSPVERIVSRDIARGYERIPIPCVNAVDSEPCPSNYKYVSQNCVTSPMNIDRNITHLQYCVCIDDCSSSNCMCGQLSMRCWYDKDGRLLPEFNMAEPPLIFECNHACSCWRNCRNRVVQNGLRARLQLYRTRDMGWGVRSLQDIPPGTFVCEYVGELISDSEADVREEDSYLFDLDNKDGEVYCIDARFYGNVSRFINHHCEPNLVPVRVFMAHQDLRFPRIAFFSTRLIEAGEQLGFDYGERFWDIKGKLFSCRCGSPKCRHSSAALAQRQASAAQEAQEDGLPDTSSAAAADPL
Description: as §2

KMT5b = KMT5b (Homo sapiens, UniProt Q4FZB7); assay: Fluorescence polarization saturation binding of fluorescent probe to KMT5b; conditions: saturation-binding format, mean ± SEM, read-out: Sinefungin Probe 1A Affinity
Chain of KMT5b (Q4FZB7 whole entry, species assumed): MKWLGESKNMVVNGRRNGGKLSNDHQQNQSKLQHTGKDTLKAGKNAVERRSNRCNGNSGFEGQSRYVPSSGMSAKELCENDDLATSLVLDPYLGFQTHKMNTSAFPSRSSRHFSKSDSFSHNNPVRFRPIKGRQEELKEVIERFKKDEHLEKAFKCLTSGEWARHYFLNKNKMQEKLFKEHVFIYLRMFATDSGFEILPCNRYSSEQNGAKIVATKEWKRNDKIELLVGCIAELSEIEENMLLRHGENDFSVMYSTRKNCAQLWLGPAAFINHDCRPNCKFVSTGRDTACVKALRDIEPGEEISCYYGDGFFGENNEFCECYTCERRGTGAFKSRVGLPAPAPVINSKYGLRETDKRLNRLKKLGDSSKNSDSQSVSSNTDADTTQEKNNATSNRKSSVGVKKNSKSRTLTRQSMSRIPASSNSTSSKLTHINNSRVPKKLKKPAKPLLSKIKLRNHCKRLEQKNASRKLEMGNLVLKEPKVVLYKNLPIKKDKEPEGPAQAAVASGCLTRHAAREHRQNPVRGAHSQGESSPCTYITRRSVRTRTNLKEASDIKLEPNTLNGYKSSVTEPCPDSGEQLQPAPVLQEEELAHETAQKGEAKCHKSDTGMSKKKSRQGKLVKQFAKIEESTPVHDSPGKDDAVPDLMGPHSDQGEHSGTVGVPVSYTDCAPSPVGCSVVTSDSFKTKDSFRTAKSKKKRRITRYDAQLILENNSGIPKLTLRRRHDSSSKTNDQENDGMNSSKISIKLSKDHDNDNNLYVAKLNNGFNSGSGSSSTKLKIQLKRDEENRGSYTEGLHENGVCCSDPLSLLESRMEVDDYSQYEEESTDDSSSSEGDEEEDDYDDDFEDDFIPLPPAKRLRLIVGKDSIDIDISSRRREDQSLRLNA
Description: as §2

SET8 = molecular target: T4, SET8 (Homo sapiens, UniProt Q9NQR1); assay: Fluorescence polarization saturation binding of fluorescent probe to SET8
T4 construct: purchased Cayman 10319
T4 sequence (Q9NQR1 1-393): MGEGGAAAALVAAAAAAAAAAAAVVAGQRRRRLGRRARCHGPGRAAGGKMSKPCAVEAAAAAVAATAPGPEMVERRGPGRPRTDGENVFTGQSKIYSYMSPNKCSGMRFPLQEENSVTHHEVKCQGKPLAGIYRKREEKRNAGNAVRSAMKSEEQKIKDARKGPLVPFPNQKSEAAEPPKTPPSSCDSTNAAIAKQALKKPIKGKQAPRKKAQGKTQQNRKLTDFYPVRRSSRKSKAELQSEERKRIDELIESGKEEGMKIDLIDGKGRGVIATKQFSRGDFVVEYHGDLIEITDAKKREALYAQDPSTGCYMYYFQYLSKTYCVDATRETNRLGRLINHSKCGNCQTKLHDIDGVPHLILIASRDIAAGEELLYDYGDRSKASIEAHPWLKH
Description: as §1

KMT5c = KMT5c (Homo sapiens, UniProt Q86Y97); assay: Fluorescence polarization saturation binding of fluorescent probe to KMT5c; conditions: saturation-binding format, read-out: Sinefungin Probe 1A Affinity
Chain of KMT5c (Q86Y97 whole entry, species assumed): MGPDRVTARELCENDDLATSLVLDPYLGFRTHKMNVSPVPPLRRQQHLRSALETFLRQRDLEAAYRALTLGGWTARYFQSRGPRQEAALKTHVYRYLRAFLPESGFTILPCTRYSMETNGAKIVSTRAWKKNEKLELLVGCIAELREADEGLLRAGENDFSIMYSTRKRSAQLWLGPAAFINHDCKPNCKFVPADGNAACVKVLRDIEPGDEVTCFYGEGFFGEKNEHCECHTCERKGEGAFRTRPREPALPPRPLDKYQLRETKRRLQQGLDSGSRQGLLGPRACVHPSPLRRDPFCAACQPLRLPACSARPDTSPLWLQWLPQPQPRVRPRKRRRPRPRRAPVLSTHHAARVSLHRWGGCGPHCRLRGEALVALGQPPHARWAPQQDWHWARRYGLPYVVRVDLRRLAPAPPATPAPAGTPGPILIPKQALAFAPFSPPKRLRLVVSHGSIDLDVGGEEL
Description: as §2

Kd (SET7/9; Example 8, SET7/9, 5 nM probe, experiment performed once, FIG. 2, read-out: Kd): 17 nM
Kd (SET7/9; SET7/9, saturation-binding format, mean ± SEM, at least two independent experiments, read-out: Sinefungin Probe 1A Affinity): < 2000 nM and 27 nM
Kd (PRMT1; PRMT1, saturation-binding format, read-out: Sinefungin Probe 1A Affinity): > 1200 nM
Kd (Trypsin): > 10000 nM
Kd (MLL): 750 ± 65 nM
Kd (GLP): 580 ± 50 nM
Kd (KMT5b): 6100 ± 800 nM
Kd (SET8; SET8, saturation-binding format, read-out: Sinefungin Probe 1A Affinity): > 2000 nM
Kd (KMT5c): > 2000 nM
SMILES: Nc1ncnc2c1ncn2[C@@H]1O[C@H](C[C@@H](N)CC[C@H](N)C(=O)O)[C@@H](OCc2cnnn2CCCCCCNC(=O)OC2CCN(C(=O)c3ccccc3C3=c4cc5c6c(c4Oc4c3cc3c7c4CCCN7CCC3)CCC[N+]=6CCC5)CC2)[C@H]1O [Sinefungin Probe 1A]
measurable affinity for the probe (PRMT1; Example 8, PRMT1, 5 nM probe, FIG. 2): only SET7/9 and G9a displayed measurable affinity
measurable affinity for the probe (SET8; Example 8, SET8, 5 nM probe, FIG. 2): only SET7/9 and G9a displayed measurable affinity
